Read-outs that look alike come from different tables or passages of the source.
Key:
DDAH = target: T1, DDAH (Rattus norvegicus, UniProt O08557); test: DDAH activity assay (rat kidney lysate, [14C]L-NMMA to [14C]citrulline); assay type: biochemical; settings: for inhibition at 100 µM: 100 μM compound
T1 construct: Rat kidney was homogenized in PBS; from tissue; host or cells: rat kidney homogenate, high-speed supernatant
Procedure: Rat kidney was homogenized in PBS containing PMSF 1 mM, leupeptin 5 μg/ml, pepstatin 5 μg/ml, chymostatin 5 μg/ml, and the lysate was centrifuged (4000 rpm. 20 min then supernatant further centrifuged for 40000 rpm, 30 min, 4° C.). The supernatants were analyzed for DDAH activity; [^14[…]) was added to the cell lysates (final volume 100 μl) and incubated for 1 h at 37° C. Dowex resin (0.5 ml) at neutral pH was immediately added to samples to terminate the reaction and bind unmetabolized L-NMMA. [^14C]Citrulline formation was determined by scintillation counting (Hewlett Packard).

iNOS = target: T2, iNOS (Mus musculus, UniProt P29477); test: iNOS activity Greiss assay in stimulated RAW cells; assay type: cell-based; settings: Griess NOx, RAW cells stimulated 24 h with LPS/IFN and TNF, compound 0.5 mM, 550 nm; control 0.367 ± 0.021
T2 construct: endogenous in cells; host or cells: RAW cells stimulated with LPS/IFN and TNF
Procedure: RAW cells were stimulated for 24 h with LPS/IFN and TNF, in the presence of the DDAH inhibitor compounds (0.5 mM). Levels of NOx secreted into the media by the cells were determined by Griess assay: Greiss reagent [1:1 sulfanilamide ([…]) in ortho-phosphoric acid (50%) and N-(1-napthyl)ethylenediamine dihydrochloride (1%)] was added as 100 μl volume to 100 μl cell culture media and the plate was read at 550 nm and analysed in relation to sodium nitrite and nitrate standards.

eNOS = eNOS assay ([14C]arginine conversion); assay type: biochemical; settings: eNOS activity
Procedure: Compounds to be tested were added to NOS assay buffer (HEPES 50 mM pH 7.2, FAD 5 μM, FMN 5 μM, BH4 10 μM, NADPH 1 mM, DTT 0.5 mM, CaCl2 1 mM, MgCl2 1 mM, calmodulin 50 nM, [^14C] arginine 100 μM) in a final volume of 100 μl and the reaction was initiated by addition of eNOS (eNOS 3.3. U/reaction, Alexis Biochemicals). Reactions were incubated for 1 h at 37° C. and the reaction was terminated by the addition of Dowex pH 5.5 (0.85 ml) to each tube. Tubes were vortexed and microfuged <12000 g, 5 min. 100 μl of the Dowex supernatant was added to 5 ml scintillation cocktail and was counted in a scintillation counter (Hewlett Packard). The compounds were tested at 1 mM and 0.1 mM concentrations. Activity is expressed as % of control where control contained no inhibitor, n=4. The DDAH inhibitors of the present invention tested had no significant effect on eNOS activity.

[1] = In vivo study: serum dimethylarginine levels after i.v. bolus; design: species or system Male Wistar rats; settings: 4 hours after 60 mg/kg i.v. bolus, control 1.81 ± 0.23
Procedure: Male Wistar rats (250-300 g; Charles River, Margate, Kent, UK) were anaesthetised using Isoflurane. The jugular vein was cannulated. Animals were injected intravenously with a bolus dose of inhibitor (60 mg/kg) or saline. Anaesthesia was maintained for 4 hours at the end of which blood was obtained via cardiac puncture for the determination of serum dimethylarginine levels. [All animals received care in compliance with The British Home Office Regulations and Principles of Laboratory Animal Care. (Project licenses PPL/5344, PPL/4824, PPL 70/5580)]
SDMA is not a substrate for DDAH and the levels of SDMA would be expected to be the same of the treated and the control animals, and this was the case. Since there is a great deal of variability of the “normal” ADMA and SDMA level, it is useful to measure the ratio of ADMA and SDMA in each animal to provide a reliable indicator of the relative changes of these to substances.

rat aortic rings [2] = test: NOx production from endotoxin-treated rat aortic rings in static culture; assay type: cell-based; settings: endotoxin 10 μg/ml, compound 500 μM
Procedure: FIG. 1 is a graph showing the nitrate and nitrite (NOx) production from isolated rat aortic rings in static culture in the presence of either media alone (untreated); media plus 10 μg/ml LPS (LPS) and media plus 10 μg/ml LPS and 500 μM SR257 or SR291. n≧6; *p<0.0001 One Way ANOVA plus Bonferroni post hoc correction;
Effects of two compounds SR 291 [N^G-(2-methoxyethyl)-L-arginine methyl ester] and SR 257 [N^G-(2-methoxyethyl)-L-arginine]) have been tested in a series of models of endotoxin-induced vascular dysfunction. Treatment of rat aortic vascular rings in static culture with endotoxin (10 μg/ml) led to an increase in generation of nitric oxide (as measured by nitrite and nitrate). This increase in NO was prevented by treatment with 500 μM SR257 or SR291.

rat aortic rings [3] = test: Endotoxin-induced hyporeactivity to vasoconstrictors in rat aortic rings; assay type: cell-based; settings: endotoxin 0.3 μg/ml, compound 100 μM and 200 μM
Procedure: Incubation of rat aortic rings with endotoxin (0.3 μg/ml) led to the development of hyporeactivity to vasoconstrictors.

RAW cells = test: Cell viability assay (MTT) in RAW cells
Procedure: RAW cells were treated with DDAH inhibitor compound (0.5 mM) in complete media for 24 h; cells were subsequently assessed for viability by MTT assay. Cell culture media was removed from cells and replaced with 200 μl complete media containing 3-[4,5-Dimethylthiazol-2-yl]-2,5-diphenyltetrazolium bromide (MTT 0.2 mg/ml) for 30 min at 37° C. MTT containing media was removed and 100 ul DMSO was added to solubilize cells; after shaking, plates were read at OD550 nm.

[4] = 1 mM compound, [14C]L-NMMA 1 μmol/L, 1 h 37° C.
[5] = MTT, RAW cells, compound 0.5 mM, 24 h, OD550 nm, control 2.54 ± 0.26

T1 sequence (O08557 2-285 limits assumed): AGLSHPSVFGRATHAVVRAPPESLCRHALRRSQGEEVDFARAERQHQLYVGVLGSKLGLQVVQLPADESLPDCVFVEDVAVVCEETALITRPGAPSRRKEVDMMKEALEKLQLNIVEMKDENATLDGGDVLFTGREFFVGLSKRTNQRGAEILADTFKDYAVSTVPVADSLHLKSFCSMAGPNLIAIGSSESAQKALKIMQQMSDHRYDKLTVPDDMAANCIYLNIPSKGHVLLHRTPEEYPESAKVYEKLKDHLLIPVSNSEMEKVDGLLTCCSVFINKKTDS

Row | SMILES | OD units drug ± sd (iNOS) | % of control ± sd (eNOS; 0.1 mM compound) | % of control ± sd (eNOS; 1 mM compound) | inhibition at 100 µM (DDAH) | other results
1 | COCCN=C(N)NCCCC(N)C(=O)O [Example 21, N^G-(2-methoxyethyl)-L-arginine] | 0.326 ± 0.014 OD units | 96.84 ± 30.49 [2] % of control | 84.81 ± 22.74 [4] % of control |  | inhibition at 1000 µM (DDAH; [4]): 100%; ADMA:SDMA ± sd [1]: 3.50 ± 0.48; endotoxin-induced increase in NO (nitrite and nitrate) (rat aortic rings [2]): prevented; endotoxin-induced hyporeactivity to vasoconstrictors (rat aortic rings [3]): reversed dose dependently; OD units drug ± sd (RAW cells; [5]): 2.15 ± 0.13 OD units
2 | COCCN=C(N)NCC[C@H](N)C(=O)OC [Example 22, (S)-2-Amino-4-(N′-(2-methoxyethyl)guanidino)butanoic acid methyl ester] | 0.329 ± 0.013 OD units | 87.23 ± 18.05 [2] % of control | 84.05 ± 8.09 [4] % of control |  | inhibition at 1000 µM (DDAH; [4]): 75%; OD units drug ± sd (RAW cells): 2.33 ± 0.19 OD units
3 | CCCOC(=O)[C@@H](N)CCN(CCOC)C(=N)N [Example 24, (S)-2-Amino-4-(N-(2-methoxyethyl)guanidino)butanoic acid propyl ester] | 0.351 ± 0.013 OD units | 113.5 ± 7.93 [2] % of control | 93.97 ± 12.93 [4] % of control |  | Inhibition at 1 mM, % (DDAH; [4]): 64%
4 | COCCN=C(N)NCC[C@H](N)C(=O)OCc1ccccc1 [Example 26, (S)-2-Amino-4-(N′-(2-methoxyethyl)guanidino)butanoic acid benzyl ester] | 0.327 ± 0.026 OD units | 101.2 ± 38.07 [2] % of control | 82.88 ± 10.08 [4] % of control |  | inhibition at 1000 µM (DDAH; [4]): 96%; OD units drug ± sd (RAW cells): 2.40 ± 0.17 OD units
5 | COCCN=C(N)NCC[C@H](N)C(=O)OCc1ccccc1OC [Example 33, 2-Methoxybenzyl (S)-2-amino-4-[(N′-(2-methoxyethyl))guanidino]butanoate] |  |  |  | 47.4% | 
6 | COCCN=C(N)NCC[C@H](N)C(=O)OCc1ccc(OC)cc1 [Example 34, 4-Methoxybenzyl (S)-2-amino-4-[(N′-(2-methoxyethyl))guanidino]butanoate] |  |  |  | 22.1% | 
7 | COCCN=C(N)NCC[C@H](N)C(=O)OCc1ccccc1F [Example 35, 2-Fluorobenzyl (S)-2-amino-4-[(N′-(2-methoxyethyl))guanidino]butanoate] |  |  |  | 39.8% | 
8 | COCCN=C(N)NCC[C@H](N)C(=O)OCc1ccc(F)c(C(F)(F)F)c1 [Example 36, 3-Trifluoromethyl-4-fluorobenzyl (S)-2-amino-4-[(N′-(2-methoxyethyl))guanidino]butanoate] |  |  |  | 50.6% | 
9 | COCCN=C(N)NCC[C@H](N)C(=O)OCc1cccc(Oc2ccccc2)c1 [Example 37, 3-Phenoxybenzyl (S)-2-amino-4-[(N′-(2-methoxyethyl))guanidino]butanoate] |  |  |  | 42.7% | 
10 | COCCN=C(N)NCC[C@H](N)C(=O)OCc1cccc(C)c1 [Example 38, 3-Methylbenzyl (S)-2-amino-4-[(N′-(2-methoxyethyl))guanidino]butanoate] |  |  |  | 48.7% | 
11 | COCCN=C(N)NCC[C@H](N)C(=O)OCc1cccc(C(F)(F)F)c1 [Example 39, 3-Trifluoromethylbenzyl (S)-2-amino-4-[(N′-(2-methoxyethyl))guanidino]butanoate] |  |  |  | 45.3% | 
12 | COCCN=C(N)NCC[C@H](N)C(=O)OCc1cccc(F)c1 [Example 40, 3-Fluorobenzyl (S)-2-amino-4-[(N′-(2-methoxyethyl))guanidino]butanoate] |  |  |  | 33.2% | 
13 | COCCN=C(N)NCC[C@H](N)C(=O)OCCOC [Example 41, 2-Methoxyethyl (S)-2-amino-4-[(N′-(2-methoxyethyl))guanidino]butanoate] |  |  |  | 59% | 
14 | CNC(=N)NCCC[C@H](N)C(=O)O [L-NMMA, N^G monomethyl-L-arginine, reference compound] | 0.121 ± 0.003 OD units |  | 16.17 ± 15.78 [4] % of control |  | OD units drug ± sd (RAW cells; [5]): 2.22 ± 0.08 OD units
15 | CC(=N)NCCC[C@H](N)C(=O)O [NIO, L-N-5-(1-iminoethyl)ornithine, reference compound] | 0.103 ± 0.002 OD units | 4.14 ± 8.74 [3] % of control | 6.25 ± 7.52 [5] % of control |  | OD units drug ± sd (RAW cells; [5]): 1.89 ± 0.41 OD units

— patent US8063104B2, “Guanidine derivatives as inhibitors of DDAH” (UCL Business PLC, priority 2004, dated 2011)
